The record followed here is BindingDB's records for patent US10457686 (Hoffmann-La Roche Inc., 2019).

Some results are limits rather than exact numbers.

The term Ki denotes a dissociation constant, usually derived from enzyme kinetics or from competition with a known ligand. Higher therefore signals weaker binding.

For the experiment, the target named is Cannabinoid receptor 1 (Homo sapiens, UniProt P21554).
Cannabinoid receptor 1, sequence (P21554 whole entry): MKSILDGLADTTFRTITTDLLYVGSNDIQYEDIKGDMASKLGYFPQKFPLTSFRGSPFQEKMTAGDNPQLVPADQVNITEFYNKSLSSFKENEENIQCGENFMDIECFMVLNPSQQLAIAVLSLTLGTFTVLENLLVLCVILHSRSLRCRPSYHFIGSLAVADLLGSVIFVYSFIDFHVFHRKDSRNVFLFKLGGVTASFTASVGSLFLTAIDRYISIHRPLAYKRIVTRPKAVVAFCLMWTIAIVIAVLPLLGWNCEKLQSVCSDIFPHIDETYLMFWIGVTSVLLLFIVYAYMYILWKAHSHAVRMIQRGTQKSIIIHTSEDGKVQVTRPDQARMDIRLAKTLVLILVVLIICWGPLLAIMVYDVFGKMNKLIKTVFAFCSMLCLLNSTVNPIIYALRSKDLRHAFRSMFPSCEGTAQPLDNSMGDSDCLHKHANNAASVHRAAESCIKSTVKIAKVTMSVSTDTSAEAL

On to `CC(C)(C)c1nc(N2CCC(F)(F)C2)c2nn(Cc3ccc(C4(C(F)(F)F)N=N4)cc3Cl)nc2n1` [US10457686, Example 1], for which the Ki was greater than 10 µM.
